Assay results reported in patent US20250206730A1 (AUTOTELIC BIO INC., priority 2022, published 2025).

molecular target: T1, ALK5 kinase (Homo sapiens, UniProt P36897); test: LanthaScreen Eu Kinase Binding Assay; conditions: Kinase Tracer 178, Eu-anti-GST Antibody, read-out: IC50 Enzyme
T1 sequence (P36897 34-503): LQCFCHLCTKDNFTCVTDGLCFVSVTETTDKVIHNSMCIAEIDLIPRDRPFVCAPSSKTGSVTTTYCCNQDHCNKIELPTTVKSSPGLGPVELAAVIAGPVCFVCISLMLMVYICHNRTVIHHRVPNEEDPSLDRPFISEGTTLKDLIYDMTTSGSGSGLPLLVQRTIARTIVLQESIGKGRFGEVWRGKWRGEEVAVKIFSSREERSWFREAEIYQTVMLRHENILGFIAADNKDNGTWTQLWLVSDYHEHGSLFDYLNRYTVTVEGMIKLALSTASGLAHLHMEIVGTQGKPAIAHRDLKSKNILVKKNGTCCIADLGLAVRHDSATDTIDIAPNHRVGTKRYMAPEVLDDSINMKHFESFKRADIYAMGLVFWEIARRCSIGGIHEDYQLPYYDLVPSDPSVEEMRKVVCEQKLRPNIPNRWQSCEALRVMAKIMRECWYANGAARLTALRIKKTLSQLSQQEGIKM
Outline: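 Compound (1% DMSO final) preincubated 30 min at RT with GST-tagged ALK5, then Eu-anti-GST antibody and Kinase Tracer 178 added for 60 min at RT. TR-FRET read at 340 nm excitation; 665/615 nm emission ratio falls as compound binding rises.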

Row | SMILES | IC50 [µM]
1 | CCc1nc(-c2cccc(C)n2)c(Oc2ccnc(Nc3ccc(C(=O)OCC4CC4)cn3)c2)s1 [A-270] | < 0.1
2 | CCc1nc(-c2cccc(C)n2)c(Oc2ccnc(Nc3ccc(C(=O)OCCN(C)C)cn3)c2)s1 [A-271, 2-(Dimethylamino)ethyl 6-((4-((2-ethyl-4-(6-methylpyridin-2-yl)thiazol-5-yl)oxy)pyridin-2-yl)amino)nicotinate] | < 0.1

The remaining lines, values ahead:

Row | IC50 [µM] | SMILES
3 | < 0.1 | O=C(O)c1ccc(Nc2cc(Oc3oc(C4CC4)nc3-c3ccccc3)ccn2)nc1 [A-293, 6-((4-((2-Cyclopropyl-4-phenyloxazol-5-yl)oxy)pyridin-2-yl)amino)nicotinic acid]
4 | < 0.1 | NC(=O)c1ccc(Nc2cc(Oc3oc(C4CC4)nc3-c3ccccc3)ccn2)nc1 [A-294, 6-((4-((2-Cyclopropyl-4-phenyloxazol-5-yl)oxy)pyridin-2-yl)amino)nicotinamide]

test system: TGF-β signaling; test: Assay for evaluating cellular inhibition of TGF-β signaling, HEK293 (SBE reporter) luciferase reporter; format: cell-based; conditions: Homo sapiens; HEK293 (SBE reporter) stable cells, 0.5% FBS, 2 h pre-treatment, TGF-β1 2 ng/mL 24 h; read-out: IC50 HEK 293 Cell
Description: [Example 2] Assay for Evaluating Cellular Inhibition of TGF-β Signaling
4T1 (SBE-luc2P) transient pool that have SBE-luc2P (hygro) expression plasmid or HEK293 (SBE reporter) stable cells (BPS bioscience) were seeded at 6×10^3 cells/well or 2.5×10^4 cells/well in 96-well plate, respectively. 4T1 (SBE-luc2P) transient pool were pre-treated with novel compound synthesized in Example 1 above in 0.2% FBS at approximately 60% confluence at 37° C. in 5% CO2. Also, HEK293 (SBE reporter) stable cells were pre-treated with each test compounds of formula in 0.5% FBS at approximately 80% confluence at 37° C. in 5% CO2. After 2 hours, cells were treated with TGF-β1 (2 ng/mL) for 24 h at 37° C. in 5% CO2. Cell lysates were prepared using Luciferase Assay (Promega) according to the manufacturer's instruction, and luminescence was measured by a plate reader, Biotek Synergy H1 (Vermont, USA).

Row | SMILES | IC50 [µM]
5 | CCc1nc(-c2cccc(C)n2)c(Oc2ccnc(Nc3ccc(C(=O)OCC4CC4)cn3)c2)s1 [A-270] | < 0.1
6 | CCc1nc(-c2ccccc2)c(Oc2ccnc(Nc3ccc(NCCN4CCN(CC)CC4)cn3)c2)s1 [A-211, N^2-(4-((2-Ethyl-4-phenylthiazol-5-yl)oxy)pyridin-2-yl)-N^5-(2-(4-ethylpiperazin-1-yl)ethyl)pyridine-2,5-diamine] | < 0.1
7 | CCc1nc(-c2ccccc2)c(Oc2ccnc(Nc3ccc(C(=O)NCCN4CCN(CC)CC4)cn3)c2)s1 [A-203, 6-((4-((2-Ethyl-4-phenylthiazol-5-yl)oxy)pyridin-2-yl)amino)-N-(2-(4-ethylpiperazin-1-yl)ethyl)nicotinamide] | < 0.1
8 | CCc1nc(-c2ccccc2)c(Oc2ccnc(Nc3cccc(C(N)=O)n3)n2)s1 [A-241, 6-((4-((2-Ethyl-4-phenylthiazol-5-yl)oxy)pyrimidin-2-yl)amino)picolinamide] | < 0.1
9 | CCc1nc(-c2cccc(C)n2)c(Oc2ccnc(Nc3ccc(C(=O)OCCN(C)C)cn3)c2)s1 [A-271, 2-(Dimethylamino)ethyl 6-((4-((2-ethyl-4-(6-methylpyridin-2-yl)thiazol-5-yl)oxy)pyridin-2-yl)amino)nicotinate] | < 0.1
10 | CCc1nc(-c2ccccc2)c(Oc2ccnc(Nc3ccc(NCCN4CCN(C(C)C)CC4)cn3)c2)s1 [A-212, N^2-(4-((2-Ethyl-4-phenylthiazol-5-yl)oxy)pyridin-2-yl)-N^5-(2-(4-isopropylpiperazin-1-yl)ethyl)pyridine-2,5-diamine] | < 0.1
11 | CCc1nc(-c2ccccc2)c(Oc2ccnc(Nc3ccc(-c4cn[nH]c4)cn3)c2)s1 [A-213, N-(5-(1H-Pyrazol-4-yl)pyridin-2-yl)-4-((2-ethyl-4-phenylthiazol-5-yl)oxy)pyridin-2-amine] | < 0.1
12 | CCc1nc(-c2ccccc2)c(Oc2ccnc(Nc3ccc(C(=O)NCCN4CCN(C)CC4)cn3)c2)s1 [A-201, 6-((4-((2-Ethyl-4-phenylthiazol-5-yl)oxy)pyridin-2-yl)amino)-N-(2-(4-methylpiperazin-1-yl)ethyl)nicotinamide] | < 0.1
13 | CCc1nc(-c2ccccc2)c(Oc2ccnc(Nc3ccc(NCCN4CCN(C)CC4)cn3)c2)s1 [A-209, N^2-(4-((2-Ethyl-4-phenylthiazol-5-yl)oxy)pyridin-2-yl)-N^5-(2-(4-methylpiperazin-1-yl)ethyl)pyridine-2,5-diamine] | < 0.1
14 | CCc1nc(-c2ccccc2)c(Oc2ccnc(Nc3ccc(C(=O)NC(C)C)cn3)c2)s1 [A-196, 6-((4-((2-Ethyl-4-phenylthiazol-5-yl)oxy)pyridin-2-yl)amino)-N-isopropylnicotinamide] | < 0.1
15 | CCc1nc(-c2ccccc2)c(Oc2ccnc(Nc3cccc(C(N)=O)c3)n2)s1 [A-243, 3-((4-((2-Ethyl-4-phenylthiazol-5-yl)oxy)pyrimidin-2-yl)amino)benzamide] | < 0.1
16 | CCc1nc(-c2ccccc2)c(Oc2ccnc(Nc3ccc(NCCN4CCN(C)CC4)cc3)c2)s1 [A-206, N^1-(4-((2-Ethyl-4-phenylthiazol-5-yl)oxy)pyridin-2-yl)-N^4-(2-(4-methylpiperazin-1-yl)ethyl)benzene-1,4-diamine] | < 0.1
17 | CCc1nc(-c2ccccc2)c(Oc2ccnc(Nc3ccc(NCCN4CCN(CC)CC4)cc3)c2)s1 [A-207, N^1-(4-((2-Ethyl-4-phenylthiazol-5-yl)oxy)pyridin-2-yl)-N^4-(2-(4-ethylpiperazin-1-yl)ethyl)benzene-1,4-diamine] | < 0.1
18 | CCc1nc(-c2ccccc2)c(Oc2ccnc(Nc3ccc(C(=O)O)cn3)n2)s1 [A-244, 6-((4-((2-Ethyl-4-phenylthiazol-5-yl)oxy)pyrimidin-2-yl)amino)nicotinic acid] | > 0.1
19 | CCc1nc(-c2ccccc2)c(Oc2ccnc(Nc3ccc(N4CCC(N)C4)cc3)c2)s1 (stereo not drawn) [A-214, N-(4-(3-Aminopyrrolidin-1-yl)phenyl)-4-((2-ethyl-4-phenylthiazol-5-yl)oxy)pyridin-2-amine] | < 0.1
20 | CCc1nc(-c2ccccc2)c(Oc2ccnc(Nc3ccc(C(N)=O)cn3)n2)s1 [A-245, 6-((4-((2-Ethyl-4-phenylthiazol-5-yl)oxy)pyrimidin-2-yl)amino)nicotinamide] | > 0.1
21 | CCc1nc(-c2ccccc2)c(Oc2ccnc(Nc3ccc(N4CCC(N)C4)cn3)c2)s1 (stereo not drawn) [A-204, 5-(3-Aminopyrrolidin-1-yl)-N-(4-((2-ethyl-4-phenylthiazol-5-yl)oxy)pyridin-2-yl)pyridin-2-amine] | < 0.1
22 | CCc1nc(-c2cccc(C)n2)c(Oc2ccnc(Nc3cccc(NS(C)(=O)=O)c3)c2)s1 [A-272, N-(3-((4-((2-ethyl-4-(6-methylpyridin-2-yl)thiazol-5-yl)oxy)pyridin-2-yl)amino)phenyl)methanesulfonamide] | < 0.1
23 | CCc1nc(-c2ccccc2)c(Oc2ccnc(Nc3ccc(C(=O)NCCN4CCN(C(C)C)CC4)cn3)c2)s1 [A-202, 6-((4-((2-Ethyl-4-phenylthiazol-5-yl)oxy)pyridin-2-yl)amino)-N-(2-(4-isopropylpiperazin-1-yl)ethyl)nicotinamide] | < 0.1

Second part, the molecule after the results:

Row | IC50 [µM] | SMILES
24 | < 0.1 | O=C(O)c1ccc(Nc2cc(Oc3oc(C4CC4)nc3-c3ccccc3)ccn2)nc1 [A-293, 6-((4-((2-Cyclopropyl-4-phenyloxazol-5-yl)oxy)pyridin-2-yl)amino)nicotinic acid]
25 | < 0.1 | NC(=O)c1ccc(Nc2cc(Oc3oc(C4CC4)nc3-c3ccccc3)ccn2)nc1 [A-294, 6-((4-((2-Cyclopropyl-4-phenyloxazol-5-yl)oxy)pyridin-2-yl)amino)nicotinamide]
26 | < 0.1 | NS(=O)(=O)c1cccc(Nc2cc(Oc3oc(C4CC4)nc3-c3ccccc3)ccn2)c1 [A-298, 3-((4-((2-Cyclopropyl-4-phenyloxazol-5-yl)oxy)pyridin-2-yl)amino)benzenesulfonamide]
27 | < 0.1 | NC(=O)c1cccc(Nc2cc(Oc3oc(C4CC4)nc3-c3ccccc3)ccn2)c1 [A-296, 3-((4-((2-Cyclopropyl-4-phenyloxazol-5-yl)oxy)pyridin-2-yl)amino)benzamide]
28 | < 0.1 | CCc1nc(-c2ccccc2)c(Oc2ccnc(Nc3ccc(N4CCC(NC)C4)cn3)c2)s1 (stereo not drawn) [A-312, 4-((2-Ethyl-4-phenylthiazol-5-yl)oxy)-N-(5-(3-(methylamino)pyrrolidin-1-yl)pyridin-2-yl)pyridin-2-amine]
29 | < 0.1 | O=C(O)c1cccc(Nc2cc(Oc3oc(C4CC4)nc3-c3ccccc3)ccn2)n1 [A-301, 6-((4-((2-Cyclopropyl-4-phenyloxazol-5-yl)oxy)pyridin-2-yl)amino)picolinic acid]
30 | < 0.1 | CNC(=O)c1cccc(Nc2cc(Oc3oc(C4CC4)nc3-c3ccccc3)ccn2)c1 [A-297, 3-((4-((2-Cyclopropyl-4-phenyloxazol-5-yl)oxy)pyridin-2-yl)amino)-N-methylbenzamide]
31 | > 0.1 | CCc1nc(-c2cccc(C)n2)c(Oc2ccnc(Nc3ccc(C(=O)Nc4cc(F)cc(C(=O)OCCN(C)C)c4)cn3)c2)s1 [A-273, 2-(Dimethylamino)ethyl 3-(6-((4-((2-ethyl-4-(6-methylpyridin-2-yl)thiazol-5-yl)oxy)pyridin-2-yl)amino)nicotinamido)-5-fluorobenzoate]
32 | < 0.1 | CNC(=O)c1cccc(Nc2cc(Oc3sc(C4CC4)nc3-c3cccc(C)n3)ccn2)c1 [A-281, 3-((4-((2-Cyclopropyl-4-(6-methylpyridin-2-yl)thiazol-5-yl)oxy)pyridin-2-yl)amino)-N-methylbenzamide]
33 | < 0.1 | NC(=O)c1cccc(Nc2cc(Oc3oc(C4CC4)nc3-c3ccccc3)ccn2)n1 [A-299, 6-((4-((2-Cyclopropyl-4-phenyloxazol-5-yl)oxy)pyridin-2-yl)amino)picolinamide]
34 | < 0.1 | CNC(=O)c1cccc(Nc2cc(Oc3oc(C4CC4)nc3-c3ccccc3)ccn2)n1 [A-302, 6-((4-((2-Cyclopropyl-4-phenyloxazol-5-yl)oxy)pyridin-2-yl)amino)-N-methylpicolinamide]
35 | < 0.1 | O=C(O)c1cccc(Nc2cc(Oc3oc(C4CC4)nc3-c3ccccc3)ccn2)c1 [A-300, 3-((4-((2-Cyclopropyl-4-phenyloxazol-5-yl)oxy)pyridin-2-yl)amino)benzoic acid]
36 | < 0.1 | CNC(=O)c1ccc(Nc2cc(Oc3sc(C4CC4)nc3-c3cccc(C)n3)ccn2)nc1 [A-282, 6-((4-((2-Cyclopropyl-4-(6-methylpyridin-2-yl)thiazol-5-yl)oxy)pyridin-2-yl)amino)-N-methylnicotinamide]
